These results are taken from US9315490B2, “2,5-substituted pyrimidines” (Grünenthal GmbH, priority 2014, dated 2016).

In this test the target is T1, human PDE4B1 (Homo sapiens, UniProt Q07343).
T1 construct: host or cells: Sf9 cells
T1 sequence (Q07343 whole entry): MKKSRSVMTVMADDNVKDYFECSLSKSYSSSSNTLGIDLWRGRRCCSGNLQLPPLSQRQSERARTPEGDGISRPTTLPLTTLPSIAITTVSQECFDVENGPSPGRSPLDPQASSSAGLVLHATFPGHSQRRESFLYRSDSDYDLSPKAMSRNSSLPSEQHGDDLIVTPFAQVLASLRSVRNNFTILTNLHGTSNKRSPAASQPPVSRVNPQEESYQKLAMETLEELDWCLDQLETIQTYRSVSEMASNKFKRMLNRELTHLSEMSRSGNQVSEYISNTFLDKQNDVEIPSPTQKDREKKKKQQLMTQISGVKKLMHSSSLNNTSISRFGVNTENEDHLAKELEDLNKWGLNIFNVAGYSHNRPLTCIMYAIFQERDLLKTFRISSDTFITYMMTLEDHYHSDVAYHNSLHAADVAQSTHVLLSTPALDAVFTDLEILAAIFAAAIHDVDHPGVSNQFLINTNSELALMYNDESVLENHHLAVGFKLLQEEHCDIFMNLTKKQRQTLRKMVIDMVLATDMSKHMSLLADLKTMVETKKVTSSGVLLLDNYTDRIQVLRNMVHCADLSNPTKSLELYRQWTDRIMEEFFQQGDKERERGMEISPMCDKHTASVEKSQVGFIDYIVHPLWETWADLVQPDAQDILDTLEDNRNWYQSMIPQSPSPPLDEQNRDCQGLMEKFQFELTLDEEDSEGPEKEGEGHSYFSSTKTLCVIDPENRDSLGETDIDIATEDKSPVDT
In words: cAMP HTRF assay to determine the activity of hPDE4B1. To be noted: inhibition of PDE4B at a test concentration of 1 μM. In kind it is biochemical. Here is the method:
Biological Testing cAMP HTRF® Assay to Determine the Activity of hPDE4B1
The inhibiting effect of the compounds on the enzyme activity of human PDE4B1 was measured by the quantification of 5′-adenosine monophosphate (5′-AMP), which is formed from 3′,5′-cyclic adenosine monophosphate (cAMP). Human recombinant enzyme, expressed in Sf9 cells, and the HTRF (homogeneous time-resolved fluorescence) detection method were used in the assay.
The test compound or water (control) was mixed with the human recombinant PDE4B1 enzyme (4.8 U) in a buffer consisting of 44.4 mM tris-HCl, 5.28 mM MgCl2, 2.64 mM DTT and 0.044% Tween 20 (pH 7.8). After adding the cAMP enzyme substrate (final concentration 40 nM), the mixture was incubated for 30 minutes at room temperature. Then a fluorescence acceptor (Dye2 marked with cAMP), a fluorescence donor (anti-cAMP antibody marked with a europium cryptate) and the non-specific phosphodiesterase inhibitor IBMX (3-isobutyl-1-methylxanthine; final concentration 1 mM) were added. After 60 minutes the fluorescence transfer, which correlates with the amount of remaining cAMP, was measured with a microplate reader (Rubystar, BMG) at λex=337 nm, λem=620 nm and λem=665 nm. The enzyme activity was calculated from the quotient formed from the measured signal at 665 nm and that at 620 nm. The result was expressed as the percentage inhibition of enzyme activity of the control (without PDE4 inhibitor). The enzyme was omitted for measurement of the basal control. IC50 values (IC50=concentration causing a half-maximal inhibition of control specific activity) were derived from dose response measurements with eight different concentrations (n=2; N=1-3).
Literature: N. Saldou et al., Comparison of recombinant human PDE4 isoforms: interaction with substrate and inhibitors, Cell. Signal. Vol. 10, No. 6, 427-440, 1998
Regarding `C[S+]([O-])c1cn(-c2ncc(-c3ccccn3)cn2)c2cc(C(=O)N3CCOCC3)ccc12` (stereo not shown) [Example 50, (3-(Methylsulfinyl)-1-(5-(pyridin-2-yl)pyrimidin-2-yl)-1H-indol-6-yl)(morpholino)methanone], the inhibition at 1 µM is 91%.

`C[S+]([O-])c1cn(-c2ncc(-c3ccccc3F)cn2)c2cc(C(=O)N3CCCC3)ccc12` (stereo not shown) [Example 51, (1-(5-(2-Fluorophenyl)pyrimidin-2-yl)-3-(methylsulfinyl)-1H-indol-6-yl)(pyrrolidin-1-yl)methanone] returned an inhibition at 1 µM of 86%.

`CN(C)C(=O)c1ccc2c([S+](C)[O-])cn(-c3ncc(-c4ccccc4F)cn3)c2c1` (stereo not shown) [Example 52, 1-(5-(2-Fluorophenyl)pyrimidin-2-yl)-N,N-dimethyl-3-(methylsulfinyl)-1H-indole-6-carboxamide] displayed an inhibition at 1 µM of 91%.

On to `CN(C(=O)c1ccc2c([S+](C)[O-])cn(-c3ncc(-c4ccccc4F)cn3)c2c1)C1CCOC1` (stereo not shown) [Example 54, 1-(5-(2-Fluorophenyl)pyrimidin-2-yl)-N-methyl-3-(methylsulfinyl)-N-(tetrahydrofuran-3-yl)-1H-indole-6-carboxamide], for which 1 µM produced 46% inhibition.

`C[S+]([O-])c1cn(-c2ncc(-c3ccccc3F)cn2)c2cc(C(=O)N3CCCNCC3)ccc12` (stereo not shown) [Example 55, (1,4-Diazepan-1-yl)(1-(5-(2-fluorophenyl)pyrimidin-2-yl)-3-(methylsulfinyl)-1H-indol-6-yl)methanone] gave an inhibition at 1 µM of 40%.

`C[S+]([O-])c1cn(-c2ncc(-c3ccccc3F)cn2)c2cc(C(=O)N3CCNC(=O)C3)ccc12` (stereo not shown) [Example 56, 4-(1-(5-(2-Fluorophenyl)pyrimidin-2-yl)-3-(methylsulfinyl)-1H-indole-6-carbonyl)piperazin-2-one]: at 1 µM the inhibition was 86%.

Molecule `CN(C(=O)c1ccc2c([S+](C)[O-])cn(-c3ncc(-c4ccccc4F)cn3)c2c1)C1CCNC1` (stereo not shown) [Example 58, 1-(5-(2-Fluorophenyl)pyrimidin-2-yl)-N-methyl-3-(methylsulfinyl)-N-(pyrrolidin-3-yl)-1H-indole-6-carboxamide] returned an inhibition at 1 µM of 90%.

Consider `C[S+]([O-])c1cn(-c2ncc(-c3ccccc3F)cn2)c2cc(C(=O)N3CCCOCC3)ccc12` (stereo not shown) [Example 60, (1-(5-(2-Fluorophenyl)pyrimidin-2-yl)-3-(methylsulfinyl)-1H-indol-6-yl)(1,4-oxoazepan-4-yl)methanone], for which the inhibition at 1 µM is 79%.

Molecule `CNC(=O)c1ccc2c([S+](C)[O-])cn(-c3ncc(-c4ccccc4F)cn3)c2c1` (stereo not shown) [Example 61, 1-(5-(2-Fluorophenyl)pyrimidin-2-yl)-N-methyl-3-(methylsulfinyl)-1H-indole-6-carboxamide] displayed an inhibition at 1 µM of 77%.

The molecule `C[S+]([O-])c1cn(-c2ncc(-c3ccccc3F)cn2)c2cc(C(=O)NCCO)ccc12` (stereo not shown) [Example 63, 1-(5-(2-Fluorophenyl)pyrimidin-2-yl)-N-(2-hydroxyethyl)-3-(methylsulfinyl)-1H-indole-6-carboxamide] showed an inhibition at 1 µM of 37%.

In turn, `CN(CCO)C(=O)c1ccc2c([S+](C)[O-])cn(-c3ncc(-c4ccccc4F)cn3)c2c1` (stereo not shown) [Example 64, 1-(5-(2-Fluorophenyl)pyrimidin-2-yl)-N-(2-hydroxyethyl)-N-methyl-3-(methylsulfinyl)-1H-indole-6-carboxamide] had an inhibition at 1 µM of 67%.

For the molecule `COCCN(C)C(=O)c1ccc2c([S+](C)[O-])cn(-c3ncc(-c4ccccc4F)cn3)c2c1` (stereo not shown) [Example 65, 1-(5-(2-Fluorophenyl)pyrimidin-2-yl)-N-(2-methoxyethyl)-N-methyl-3-(methylsulfinyl)-1H-indole-6-carboxamide], 1 µM produced 40% inhibition.

For the molecule `C[S+]([O-])c1cn(-c2ncc(-c3ccccc3F)cn2)c2cc(C(=O)N3CC[C@@H](O)C3)ccc12` (stereo partly drawn) [Example 66, (1-(5-(2-Fluorophenyl)pyrimidin-2-yl)-3-(methylsulfinyl)-1H-indol-6-yl)((R)-3-hydroxypyrrolidin-1-yl)methanone], at 1 µM the inhibition was 97%.
